Among the test systems are ACHN renal; CAKI-1 renal; DU-145 prostate; EKVX NSCLC; HL-60(TB) leukemia; IGROV1 ovarian; LOX IMVI melanoma; NCI-H23 lung; NCI-H460 lung; OVCAR-3 ovarian; OVCAR-4 ovarian; OVCAR-8 ovarian; SF-268 CNS; SF-539 CNS; SK-MEL-28 melanoma; SNB-75 CNS; UACC-257 melanoma; UO-31 renal; SK-MEL-2 melanoma.
Holding throughout (assay): NCI-60 cell line screen, 48 h

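Interpolation was linear, between the two tested concentrations surrounding the appropriate level; five concentrations were tested over 48 hours in 96-well plates. Definition used: TGI = concentration required for complete inhibition of growth.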

The values that follow come from PubChem BioAssay (NCI).

Regarding `CC(=O)NC(C)(C)C1CC=C(C)CC1` (stereo not given), the TGI in the test on ACHN renal, with CAKI-1 renal, with DU-145 prostate, with EKVX NSCLC, in the test on HL-60(TB) leukemia and in the test on IGROV1 ovarian was greater than 100 µM each time. For the same molecule, the TGI with LOX IMVI melanoma, with NCI-H23 lung, in the test with NCI-H460 lung, with OVCAR-3 ovarian, with OVCAR-4 ovarian and in the test with OVCAR-8 ovarian was greater than 100 µM throughout. The TGI in the test with SF-268 CNS, in the test with SF-539 CNS, in the test with SK-MEL-28 melanoma, in the test with SNB-75 CNS, with UACC-257 melanoma and in the test with UO-31 renal was greater than 100 µM each time.

In the case of `CCOC(=O)C(/C=N\C(=S)Nc1ccc(Cl)c(Cl)c1)=C(/O)c1ccccc1`, the TGI in the test with ACHN renal was greater than 100 µM; in the test on CAKI-1 renal, 84.9 µM; in the test on DU-145 prostate, greater than 100 µM; in the test with EKVX NSCLC, greater than 100 µM; in the test on HL-60(TB) leukemia it was greater than 100 µM; in the test on IGROV1 ovarian, greater than 100 µM. The TGI with LOX IMVI melanoma, in the test on NCI-H23 lung, in the test with NCI-H460 lung, with OVCAR-4 ovarian, in the test with OVCAR-8 ovarian and in the test with SF-268 CNS was greater than 100 µM throughout. Besides, the TGI in the test with SK-MEL-2 melanoma was 77.1 µM; with SK-MEL-28 melanoma it was greater than 100 µM; in the test on SNB-75 CNS, 55.9 µM; with UACC-257 melanoma it was greater than 100 µM; in the test with UO-31 renal, 16.6 µM.

Turning to `O=C(CC(C(=O)c1ccco1)c1ccsc1)c1ccco1` (stereo not given), the TGI with ACHN renal, in the test on CAKI-1 renal, in the test with DU-145 prostate, in the test with EKVX NSCLC, in the test on HL-60(TB) leukemia and in the test with IGROV1 ovarian was greater than 100 µM throughout. The TGI with LOX IMVI melanoma, with NCI-H23 lung, in the test on NCI-H460 lung, with OVCAR-3 ovarian, in the test with OVCAR-4 ovarian and in the test with OVCAR-8 ovarian was greater than 100 µM each time. For the same molecule, the TGI in the test on SF-268 CNS, in the test on SF-539 CNS, with SK-MEL-28 melanoma, in the test with SNB-75 CNS, with UACC-257 melanoma and in the test on UO-31 renal was greater than 100 µM throughout.

For the molecule `Nc1nc(N)c(C2=CCNCC2)c(=O)[nH]1`, the TGI in the test with ACHN renal, in the test with CAKI-1 renal, in the test on DU-145 prostate, with EKVX NSCLC, in the test on HL-60(TB) leukemia and in the test with IGROV1 ovarian was greater than 100 µM in each case. The TGI in the test on NCI-H23 lung, with NCI-H460 lung, with OVCAR-3 ovarian, with OVCAR-4 ovarian, in the test with OVCAR-8 ovarian and in the test on SF-268 CNS was greater than 100 µM throughout. The TGI with SF-539 CNS, in the test with SK-MEL-2 melanoma, with SK-MEL-28 melanoma, with SNB-75 CNS, in the test on UACC-257 melanoma and in the test on UO-31 renal was greater than 100 µM throughout.

On to `CC(=O)Nc1ccc(NC(=O)c2c(Cl)c(Cl)c(Cl)c(Cl)c2-c2nc3ccccc3[nH]2)cc1`, for which the TGI was greater than 100 µM in the test with ACHN renal; greater than 100 µM in the test with CAKI-1 renal; greater than 100 µM with DU-145 prostate; greater than 100 µM in the test with EKVX NSCLC; 67.6 µM in the test with HL-60(TB) leukemia; greater than 100 µM with IGROV1 ovarian. Moreover, the TGI in the test with NCI-H23 lung, in the test on NCI-H460 lung, with OVCAR-3 ovarian, in the test with OVCAR-4 ovarian, in the test with OVCAR-8 ovarian and in the test with SF-268 CNS was greater than 100 µM in each case. In addition, the TGI in the test on SF-539 CNS, in the test on SK-MEL-28 melanoma, with SNB-75 CNS, with UACC-257 melanoma and in the test with UO-31 renal was greater than 100 µM throughout.

Regarding `CC(=O)OCC1OC(n2c(-c3ccccc3)c(C(C)=O)c(-c3ccc(Cl)cc3)c(C#N)c2=S)C(OC(C)=O)C(OC(C)=O)C1OC(C)=O` (stereo not given), the TGI in the test with ACHN renal, in the test on CAKI-1 renal, in the test on DU-145 prostate, in the test on EKVX NSCLC, with HL-60(TB) leukemia and in the test with IGROV1 ovarian was greater than 100 µM throughout. For the same molecule, the TGI in the test on LOX IMVI melanoma, in the test on NCI-H23 lung, in the test on NCI-H460 lung, in the test on OVCAR-3 ovarian, with OVCAR-4 ovarian and in the test on OVCAR-8 ovarian was greater than 100 µM in each case. Moreover, the TGI in the test on SF-268 CNS, with SF-539 CNS, in the test with SK-MEL-28 melanoma, in the test on SNB-75 CNS and in the test on UACC-257 melanoma was greater than 100 µM each time.

As to `NNC(=O)c1ccccc1NC(=O)/C(=C/c1ccccc1O)NC(=O)c1ccccc1`, the TGI in the test with ACHN renal was 32.7 µM; in the test with CAKI-1 renal, 31.8 µM; in the test on DU-145 prostate, greater than 100 µM; in the test on EKVX NSCLC it was greater than 100 µM; with HL-60(TB) leukemia, greater than 100 µM; with IGROV1 ovarian, greater than 100 µM. For the same molecule, the TGI in the test with LOX IMVI melanoma was greater than 100 µM; with NCI-H23 lung it was greater than 100 µM; in the test with NCI-H460 lung it was greater than 100 µM; with OVCAR-4 ovarian it was greater than 100 µM; with OVCAR-8 ovarian, 37.7 µM; with SF-268 CNS, 28.1 µM. The TGI in the test on SF-539 CNS was 92.4 µM; in the test on SK-MEL-28 melanoma, greater than 100 µM; in the test on SNB-75 CNS, 25.9 µM; in the test on UACC-257 melanoma it was greater than 100 µM; in the test on UO-31 renal, 24.2 µM.

On to `O=C(NC(CS)C(=O)O)c1cccc2c(=O)c3ccccc3[nH]c12` (stereo not given), for which the TGI in the test on ACHN renal, in the test with DU-145 prostate, with EKVX NSCLC, with HL-60(TB) leukemia, in the test on IGROV1 ovarian and in the test with LOX IMVI melanoma was greater than 100 µM throughout. The TGI with NCI-H23 lung, in the test with OVCAR-3 ovarian, in the test on OVCAR-4 ovarian, with OVCAR-8 ovarian, with SF-268 CNS and with SK-MEL-2 melanoma was greater than 100 µM in each case. Besides, the TGI in the test with SK-MEL-28 melanoma, in the test on SNB-75 CNS and in the test on UO-31 renal was greater than 100 µM in each case.

`Cc1ccc(NN=NCCCCN)cc1`: the TGI in the test on ACHN renal, with CAKI-1 renal, in the test with DU-145 prostate, with EKVX NSCLC, in the test on HL-60(TB) leukemia and in the test on IGROV1 ovarian was greater than 100 µM in each case. Further, the TGI with LOX IMVI melanoma, with NCI-H23 lung, in the test on OVCAR-4 ovarian, in the test on OVCAR-8 ovarian, in the test on SF-268 CNS and in the test with SF-539 CNS was greater than 100 µM throughout. Moreover, the TGI with SK-MEL-2 melanoma, with SNB-75 CNS, in the test on UACC-257 melanoma and with UO-31 renal was greater than 100 µM each time.

On to `COC1CC(OC2C(C)OC(OC3C(C)OC(OC4C(O)CC(O[C@H]5CC[C@@]6(C)C(=CC[C@]7(O)[C@@H]6C[C@@H](OC(=O)/C=C/c6ccccc6)[C@@]6(C)[C@]7(O)CC[C@@]6(O)C(C)=O)C5)OC4C)CC3OC)CC2OC)OC(C)C1O` (stereo not given in full), for which the TGI in the test with ACHN renal, in the test on CAKI-1 renal, with DU-145 prostate, in the test on EKVX NSCLC, in the test with HL-60(TB) leukemia and in the test with IGROV1 ovarian was greater than 6.25 µM throughout. Also, the TGI in the test on LOX IMVI melanoma, with NCI-H23 lung, in the test on OVCAR-3 ovarian, with OVCAR-4 ovarian, in the test on OVCAR-8 ovarian and in the test with SF-268 CNS was greater than 6.25 µM in each case. The TGI in the test on SF-539 CNS, in the test on SK-MEL-2 melanoma, in the test with SNB-75 CNS, in the test on UACC-257 melanoma and in the test with UO-31 renal was greater than 6.25 µM throughout.

For the molecule `CCCCc1c2c(nc3c1CCCC3O)CCCC2` (stereo not given), the TGI in the test on ACHN renal, in the test with CAKI-1 renal, with DU-145 prostate, with EKVX NSCLC, with HL-60(TB) leukemia and in the test with IGROV1 ovarian was greater than 100 µM in each case. In addition, the TGI with NCI-H23 lung, in the test with NCI-H460 lung, with OVCAR-3 ovarian, in the test with OVCAR-4 ovarian, with OVCAR-8 ovarian and with SF-268 CNS was greater than 100 µM throughout. Moreover, the TGI in the test on SF-539 CNS, in the test with SK-MEL-2 melanoma, in the test on SNB-75 CNS, in the test with UACC-257 melanoma and with UO-31 renal was greater than 100 µM each time.

In the case of `CCCCCCCCCc1cc(-c2ccc(C=O)s2)sc1-c1ccc(C=O)s1`, the TGI is greater than 100 µM with ACHN renal; greater than 100 µM in the test with DU-145 prostate; greater than 100 µM in the test on EKVX NSCLC; 51.1 µM in the test with HL-60(TB) leukemia; 56.3 µM in the test with IGROV1 ovarian; 37 µM in the test on LOX IMVI melanoma. The TGI in the test on NCI-H23 lung is 82.5 µM; in the test with NCI-H460 lung it was greater than 83.2 µM; in the test on OVCAR-3 ovarian it was 38.2 µM; in the test on OVCAR-4 ovarian, greater than 80.4 µM; in the test with OVCAR-8 ovarian, greater than 59 µM; in the test with SF-268 CNS it was greater than 100 µM. Also, the TGI in the test on SF-539 CNS is greater than 84.3 µM; in the test on SK-MEL-2 melanoma it was 64.4 µM; with SK-MEL-28 melanoma it was greater than 100 µM; in the test with SNB-75 CNS, greater than 91.1 µM; in the test with UACC-257 melanoma it was 30.8 µM; with UO-31 renal it was 63.3 µM.
